Data taken from patent publication US20250206738A1, “WRN INHIBITORS” (Nimbus Wadjet, Inc., priority 2023, published 2025).

Molecular target: T1, human Werner helicase (WRN, Uniprot Q14191, amino acids 517-1235 with L1074F point mutation; WRN-BV08) (Homo sapiens, UniProt Q14191, L1074F)
T1 construct: Uniprot Q14191, amino acids 517-1235 with L1074F point mutation; 8xHis (C, cleaved yes); TEV cleavage site (ENLYFQG) (C, cleaved yes); made in house; host or cells: Sf9 insect cells (baculovirus, pFastBac)
Experiment: WRN (BV08) ADP-Glo assay
Format: biochemical
Settings: WRN-BV08 (aa 517-1235, L1074F); read-out: ADP-Glo_hWRN_IC50
From the text: Example 2: WRN (BV08) ADP-Glo Assay Protocol
Bovine skin gelatin (BSG), dimethyl sulfoxide (DMSO), Pluronic F-127 and tris(2-carboxyethyl)phosphine hydrochloride solution (TCEP) were purchased from Sigma-Aldrich (St. Louis, MO) at the highest level of purity possible. Bicine buffer solution was purchased from Alfa Aesar (Tewksbury, MA) and compound NSC-617145 was purchased from Tocris (Minneapolis, MN). DNA duplex was synthesized at BGI (Shenzhen, China) and was composed of strand 1 with the sequence 5′-[…]-3′ (SEQ ID NO.: 1) and strand 2 with the sequence 5′-[…]-3′ (SEQ ID NO.: 2). DNA strands were annealed by heating to 95° C. for 5 minutes followed by slow cooling to room temperature. Compounds in 100% DMSO ([…]) were spotted into a 384-well white polystyrene Optiplate-384 (Perkin Elmer; Waltham, MA) assay plate using a LabCyte Echo 550 (Agilent; Santa Clara, CA). DMSO ([…]) was added to columns 12, rows A-H and column 24, rows I-P for the maximum signal control. Compound NSC-617145 ([…]) was added to columns 12, rows I-P and 24, rows A-H for the minimum signal control (100% inhibition). Compounds/DMSO were preincubated for 15 minutes at 25° C. with […] 2×WRN (BV08), prepared as described below, in assay buffer containing 20 mM Bicine (pH=7.5), 1 mM MgCl2, 10 mM KCl, 0.1% Pluronic F-127, 0.005% BSG, 1 mM TCEP. The reaction was initiated by the addition of […] 2× substrate mixture in assay buffer and incubated for 60 minutes at 25° C. The final concentrations of the assay components were 0.15 nM WRN, […], and 0.1 nM DNA duplex. The final DMSO concentration was 1% and the reference compound concentration (NSC-617145) used for the minimal signal control was […]. The reaction was stopped by the addition of the ADP-Glo Kit components (Promega; Madison, WI) as directed and the relative luminescence units (RLU) were read on an Envision 2104 (Perkin Elmer; Waltham, MA).
% Inhibition Calculation:
Where RLU=relative luminescence units, sample=signal in sample well, and MIN and MAX are the respective minimum and maximum signal controls.
Four-Parameter IC50 Fit Equation:
Where top and bottom are normally allowed to float but may be fixed at 100 or 0 respectively in a 3-parameter fit. Y is the % inhibition and X is the compound concentration.
Molecular Biology and virus production. The DNA encoding human Werner helicase (Uniprot Q14191, amino acids 517-1235 with L1074F point mutation) was generated with codon-optimization for […] expression and subcloned into the pFastBac vector with a TEV cleavable 8×His tag (SEQ ID NO: 5) (WRN—BV08). The baculovirus from the expression plasmid WRN—BV08 was generated from transfection and amplification following the manufacturer's instructions.
Sf9 cells grown in SF900II media were infected with 1:200 WRN—BV08 P2 virus and incubated for protein expression for 72 h at 27° C. The WRN protein was purified using the following protocol. The cell pellets were thawed and resuspended in buffer A (50 mM Tris, pH 7.5, 500 mM NaCl, 1 mM TCEP, 10% Glycerol) supplemented with 0.5% CHAPS, 1 mM PMSF, 1 μg/ml Leupeptin, 1 μg/ml Pepstatin, and the Pierce Universal Nuclease and cocktail tablet. Cleared lysates were loaded onto a Ni Sepharose™ excel column and washed with buffer A and bound protein was eluted with buffer A supplemented with 300 mM imidazole. The eluted protein was dialyzed against buffer A and digested by His-tagged TEV (1:5 ratio) overnight at 4° C. ZnCl2 was added into the sample at final 15 μM before loading onto a second Ni Sepharose™ excel column. Untagged WRN protein was eluted from the column with buffer A supplemented with 20 mM imidazole, dialyzed overnight into buffer B (50 mM Tris, pH 7.5, 1 mM TCEP, 10% Glycerol) supplemented with 150 mM NaCl and loaded onto a Heparin column. Proteins were eluted with a step gradient of buffer B supplemented with 150 mM, 200 mM, 300 mM and 500 mM NaCl. […]

T1 sequence (Q14191 with tags, fused parts or gaps L1074F): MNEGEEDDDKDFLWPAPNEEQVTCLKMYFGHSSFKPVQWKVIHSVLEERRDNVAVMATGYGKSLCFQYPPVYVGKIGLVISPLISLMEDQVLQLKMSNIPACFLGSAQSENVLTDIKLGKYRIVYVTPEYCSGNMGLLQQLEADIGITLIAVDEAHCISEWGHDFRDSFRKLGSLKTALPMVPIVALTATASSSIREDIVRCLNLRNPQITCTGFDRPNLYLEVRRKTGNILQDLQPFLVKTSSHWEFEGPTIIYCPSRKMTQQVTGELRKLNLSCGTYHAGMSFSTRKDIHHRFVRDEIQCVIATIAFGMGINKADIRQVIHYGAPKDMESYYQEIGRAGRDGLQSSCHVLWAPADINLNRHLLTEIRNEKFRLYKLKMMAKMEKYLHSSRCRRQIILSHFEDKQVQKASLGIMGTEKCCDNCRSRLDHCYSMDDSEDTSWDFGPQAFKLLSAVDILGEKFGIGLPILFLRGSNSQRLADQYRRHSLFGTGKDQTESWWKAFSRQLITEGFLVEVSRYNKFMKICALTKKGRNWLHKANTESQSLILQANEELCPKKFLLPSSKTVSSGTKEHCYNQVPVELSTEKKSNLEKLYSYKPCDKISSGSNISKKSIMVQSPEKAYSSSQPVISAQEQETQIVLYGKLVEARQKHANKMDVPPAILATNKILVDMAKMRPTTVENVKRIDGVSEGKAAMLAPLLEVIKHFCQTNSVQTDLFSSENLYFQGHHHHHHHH

| SMILES | IC50 [nM] |
| --- | --- |
| CCc1c(N2CCN(C(=O)c3ncnc(C)c3O)[C@H]3CC[C@@H]32)c(=O)c2nn(-c3ccnc(C(F)F)c3)nc2n1CC(=O)NC12CC(C3CC3)(C1)C2 [I-171, N-{3-cyclopropylbicyclo[1.1.1]pentan-1-yl}-2-{2-[2-(difluoromethyl)pyridin-4-yl]-5-ethyl-6-[(1S,6S)-5-(5-hydroxy-6-methylpyrimidine-4-carbonyl)-2,5-diazabicyclo[4.2.0]octan-2-yl]-7-oxo-2H,4H,7H-[1,2,3]triazolo[4,5-b]pyridin-4-yl}acetamide] | 5 to 50 |
| CCc1c(N2CCN(C(=O)c3ncc4c(c3O)CCO4)CC2)c(=O)n2nc(C3=CCOCC3)nc2n1CC(=O)NC12CC(C)(C1)C2 [I-5, 2-(2-(3,6-dihydro-2H-pyran-4-yl)-5-ethyl-6-(4-(4-hydroxy-2,3-dihydrofuro[2,3-c]pyridine-5-carbonyl)piperazin-1-yl)-7-oxo-[1,2,4]triazolo[1,5-a]pyrimidin-4(7H)-yl)-N-(3-methylbicyclo[1.1.1]pentan-1-yl)acetamide] | 50 to 100 |
| CCc1c(N2CCN(C(=O)c3ncnc(C)c3O)[C@H]3CC[C@@H]32)c(=O)c2nn(-c3ccnc(OC)c3)nc2n1CC(=O)NC12CC(C3CCCC3)(C1)C2 [I-183, N-{3-cyclopentylbicyclo[1.1.1]pentan-1-yl}-2-{5-ethyl-6-[(1S,6S)-5-(5-hydroxy-6-methylpyrimidine-4-carbonyl)-2,5-diazabicyclo[4.2.0]octan-2-yl]-2-(2-methoxypyridin-4-yl)-7-oxo-2H,4H,7H-[1,2,3]triazolo[4,5-b]pyridin-4-yl}acetamide] | ≤ 5 |
| CCc1c(N2CCN(C(=O)c3ncnc(C)c3O)CC2)c(=O)c2nn(C3=CCOCC3)nc2n1CC(=O)NC12CC(C(C)C)(C1)C2 [I-59, 2-[2-(3,6-dihydro-2H-pyran-4-yl)-5-ethyl-6-[4-(5-hydroxy-6-methylpyrimidine-4-carbonyl)piperazin-1-yl]-7-oxo-2H,4H,7H-[1,2,3]triazolo[4,5-b]pyridin-4-yl]-N-[3-(propan-2-yl)bicyclo[1.1.1]pentan-1-yl]acetamide] | 5 to 50 |
| CCc1c(N2CCN(C(=O)c3c(O)ccc4ncoc34)[C@H]3CC[C@@H]32)c(=O)c2nn(-c3ccnc(OC)c3)nc2n1CC(=O)NC12CC(C(C)C)(C1)C2 [I-136, 2-{5-ethyl-6-[(1S,6S)-5-(6-hydroxy-1,3-benzoxazole-7-carbonyl)-2,5-diazabicyclo[4.2.0]octan-2-yl]-2-(2-methoxypyridin-4-yl)-7-oxo-2H,4H,7H-[1,2,3]triazolo[4,5-b]pyridin-4-yl}-N-[3-(propan-2-yl)bicyclo[1.1.1]pentan-1-yl]acetamide] | ≤ 5 |
| CCc1c(N2CCN(C(=O)c3ncnc(C)c3O)[C@H]3CC[C@@H]32)c(=O)c2nn(C3=CCN(CC(F)F)CC3)nc2n1CC(=O)NC12CC(C3CC3)(C1)C2 [I-174, N-{3-cyclopropylbicyclo[1.1.1]pentan-1-yl}-2-{2-[1-(2,2-difluoroethyl)-1,2,3,6-tetrahydropyridin-4-yl]-5-ethyl-6-[(1S,6S)-5-(5-hydroxy-6-methylpyrimidine-4-carbonyl)-2,5-diazabicyclo[4.2.0]octan-2-yl]-7-oxo-2H,4H,7H-[1,2,3]triazolo[4,5-b]pyridin-4-yl}acetamide] | 5 to 50 |
| CCc1c(N2CCN(C(=O)c3ncnc(C)c3O)[C@H]3CC[C@@H]32)c(=O)c2nn(C3=CCOCC3)nc2n1CC(=O)NC12CC(C(C)(C)C)(C1)C2 [I-184, N-{3-tert-butylbicyclo[1.1.1]pentan-1-yl}-2-[2-(3,6-dihydro-2H-pyran-4-yl)-5-ethyl-6-[(1S,6S)-5-(5-hydroxy-6-methylpyrimidine-4-carbonyl)-2,5-diazabicyclo[4.2.0]octan-2-yl]-7-oxo-2H,4H,7H-[1,2,3]triazolo[4,5-b]pyridin-4-yl]acetamide] | 5 to 50 |
| CCc1c(N2CCN(C(=O)c3ncnc(C)c3O)[C@H]3CC[C@@H]32)c(=O)c2nn(-c3ccn(C4CC4)n3)nc2n1CC(=O)NC12CC(C(C)C)(C1)C2 [I-78, 2-[2-(1-cyclopropyl-1H-pyrazol-3-yl)-5-ethyl-6-[(1S,6S)-5-(5-hydroxy-6-methylpyrimidine-4-carbonyl)-2,5-diazabicyclo[4.2.0]octan-2-yl]-7-oxo-2H,4H,7H-[1,2,3]triazolo[4,5-b]pyridin-4-yl]-N-[3-(propan-2-yl)bicyclo[1.1.1]pentan-1-yl]acetamide] | 5 to 50 |
| CCc1c(N2CCN(C(=O)c3c(OC)ncc(F)c3O)[C@H]3CC[C@@H]32)c(=O)c2nn(-c3ccnc(OC)c3)nc2n1CC(=O)NC12CC(C(C)C)(C1)C2 [I-166, 2-{5-ethyl-6-[(1S,6S)-5-(5-fluoro-4-hydroxy-2-methoxypyridine-3-carbonyl)-2,5-diazabicyclo[4.2.0]octan-2-yl]-2-(2-methoxypyridin-4-yl)-7-oxo-2H,4H,7H-[1,2,3]triazolo[4,5-b]pyridin-4-yl}-N-[3-(propan-2-yl)bicyclo[1.1.1]pentan-1-yl]acetamide] | ≤ 5 |
| CCc1c(N2CCN(C(=O)c3ncc4c(c3O)CCO4)CC2)c(=O)n2nc(C3=CCOCC3)nc2n1CC(=O)NC12CC(F)(C1)C2 [I-6, 2-(2-(3,6-dihydro-2H-pyran-4-yl)-5-ethyl-6-(4-(4-hydroxy-2,3-dihydrofuro[2,3-c]pyridine-5-carbonyl)piperazin-1-yl)-7-oxo-[1,2,4]triazolo[1,5-a]pyrimidin-4(7H)-yl)-N-(3-fluorobicyclo[1.1.1]pentan-1-yl)acetamide] | > 500 |
| CCc1c(N2CCN(C(=O)c3nocc3O)[C@H]3CC[C@@H]32)c(=O)c2nn(C3=CCOCC3)nc2n1CC(=O)NC12CC(C(C)C)(C1)C2 [I-161, 2-[2-(3,6-dihydro-2H-pyran-4-yl)-5-ethyl-6-[(1S,6S)-5-(4-hydroxy-1,2-oxazole-3-carbonyl)-2,5-diazabicyclo[4.2.0]octan-2-yl]-7-oxo-2H,4H,7H-[1,2,3]triazolo[4,5-b]pyridin-4-yl]-N-[3-(propan-2-yl)bicyclo[1.1.1]pentan-1-yl]acetamide] | ≤ 5 |
| CCc1c(N2CCN(C(=O)c3c(COC)cccc3OC)[C@H]3CC[C@@H]32)c(=O)c2nn(C3=CCOCC3)nc2n1CC(=O)NC12CC(C3CC3)(C1)C2 [I-199, N-{3-cyclopropylbicyclo[1.1.1]pentan-1-yl}-2-[2-(3,6-dihydro-2H-pyran-4-yl)-5-ethyl-6-[(1S,6S)-5-[2-methoxy-6-(methoxymethyl)benzoyl]-2,5-diazabicyclo[4.2.0]octan-2-yl]-7-oxo-2H,4H,7H-[1,2,3]triazolo[4,5-b]pyridin-4-yl]acetamide] | 5 to 50 |
| CCc1c(N2CCN(C(=O)c3ncnc(C)c3O)[C@H]3CCC[C@@H]32)c(=O)c2nn(C3=CCOCC3)nc2n1CC(=O)NC12CC(C3CC3)(C1)C2 [I-60, 2-{6-[(4aS,7aS)-4-(5-hydroxy-6-methylpyrimidine-4-carbonyl)-octahydro-1H-cyclopenta[b]pyrazin-1-yl]-2-(3,6-dihydro-2H-pyran-4-yl)-5-ethyl-7-oxo-2H,4H,7H-[1,2,3]triazolo[4,5-b]pyridin-4-yl}-N-{3-cyclopropylbicyclo[1.1.1]pentan-1-yl}acetamide] | 5 to 50 |
